From US9156796B2, “Benzoimidazole-carboxylic acid amide derivatives as APJ receptor modulators” (SANOFI, priority 2013, dated 2015)

Each molecule was assayed against T1, human apelin receptor (Homo sapiens, UniProt P35414) (assay: Determination of agonism on the human apelin receptor by a calcium fluorescence assay (FLIPR)). Conditions: HEK293 cells stably transfected with human apelin receptor and Giaq protein, Fluo-4 calcium fluorescence, read-out: EC50 (APJ agonism).
T1 construct: expressed in transfected cells
T1 sequence (P35414 1-380): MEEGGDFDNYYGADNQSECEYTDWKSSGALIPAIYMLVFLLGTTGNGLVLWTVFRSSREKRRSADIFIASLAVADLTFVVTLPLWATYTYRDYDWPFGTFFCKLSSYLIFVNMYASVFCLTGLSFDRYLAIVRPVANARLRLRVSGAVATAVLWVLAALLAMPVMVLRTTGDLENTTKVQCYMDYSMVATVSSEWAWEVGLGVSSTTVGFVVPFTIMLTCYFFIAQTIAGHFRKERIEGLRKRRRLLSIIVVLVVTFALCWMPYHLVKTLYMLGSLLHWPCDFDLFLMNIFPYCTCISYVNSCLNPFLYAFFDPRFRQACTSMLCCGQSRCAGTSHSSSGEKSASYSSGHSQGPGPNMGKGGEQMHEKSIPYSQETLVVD
Type: cell-based
Procedure, shortened: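 Agonist EC50s come from peak intracellular calcium transients recorded by FLIPR Tetra, scaled to the 1 μM apelin-13 maximum per plate. Test system: HEK293 stably transfected with human apelin receptor plus Giaq, Fluo-4-loaded (4 μM, 1 h, 37 °C, pH 7.4 buffer with probenecid); ≥7 concentrations, triplicates.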

| SMILES | EC50 [nM] |
| --- | --- |
| CCC(CC)n1c(Cc2ccco2)nc2cc(C(=O)NC(CC(=O)O)C(C)C)ccc21 (stereo not drawn) [Example 41, 3-{[1-(1-Ethyl-propyl)-2-furan-2-ylmethyl-1H-benzoimidazole-5-carbonyl]-amino}-4-methyl-pentanoic acid] | 2430 |
| CCC(CC)n1c(Cc2ccco2)nc2cc(C(=O)NC(CC(=O)O)c3ccccc3)ccc21 (stereo not drawn) [Example 42, 3-{[1-(1-Ethyl-propyl)-2-furan-2-ylmethyl-1H-benzoimidazole-5-carbonyl]-amino}-3-phenyl-propionic acid] | 1100 |
| CCC(CC)n1c(CC2CCCC2)nc2cc(C(=O)NC(CC(=O)O)c3ccccc3)ccc21 (stereo not drawn) [Example 43, 3-{[2-Cyclopentylmethyl-1-(1-ethyl-propyl)-1H-benzoimidazole-5-carbonyl]-amino}-3-phenyl-propionic acid] | 14500 |
| CCC(CC)n1c(Cc2cccs2)nc2cc(C(=O)NC(CC(=O)O)C3CCCCC3)ccc21 (stereo not drawn) [Example 44, 3-Cyclohexyl-3-{[1-(1-ethyl-propyl)-2-thiophen-2-ylmethyl-1H-benzoimidazole-5-carbonyl]-amino}-propionic acid] | 258 |
| CCCCC(CC(=O)O)NC(=O)c1ccc2c(c1)nc(Cc1cccs1)n2C(CC)CC (stereo not drawn) [Example 45, 3-{[1-(1-Ethyl-propyl)-2-thiophen-2-ylmethyl-1H-benzoimidazole-5-carbonyl]-amino}-heptanoic acid] | 552 |
| CCC(CC)n1c(Cc2cccs2)nc2cc(C(=O)NC(CC(=O)O)CC3CCCCC3)ccc21 (stereo not drawn) [Example 46, 4-Cyclohexyl-3-{[1-(1-ethyl-propyl)-2-thiophen-2-ylmethyl-1H-benzoimidazole-5-carbonyl]-amino}-butyric acid] | 112 |
| CCC(CC)n1c(Cc2cccs2)nc2cc(C(=O)NC(CC(=O)O)CC(C)(C)C)ccc21 (stereo not drawn) [Example 47, 3-{[1-(1-Ethyl-propyl)-2-thiophen-2-ylmethyl-1H-benzoimidazole-5-carbonyl]-amino}-5,5-dimethyl-hexanoic acid] | 2580 |
| CCC(CC)n1c(Cc2cccs2)nc2cc(C(=O)N[C@@H](CC(=O)O)CC(C)C)ccc21 [Example 48, (R)-3-{[1-(1-Ethyl-propyl)-2-thiophen-2-ylmethyl-1H-benzoimidazole-5-carbonyl]-amino}-5-methyl-hexanoic acid] | 4190 |
| CCC(CC)n1c(Cn2cccn2)nc2cc(C(=O)N[C@H](CC(=O)O)CC(C)C)ccc21 [Example 49, (S)-3-{[1-(1-Ethyl-propyl)-2-pyrazol-1-ylmethyl-1H-benzoimidazole-5-carbonyl]-amino}-5-methyl-hexanoic acid] | 7070 |
| CCC(CC)n1c(Cc2cncs2)nc2cc(C(=O)N[C@H](CC(=O)O)CC(C)C)ccc21 [Example 50, (S)-3-{[1-(1-Ethyl-propyl)-2-thiazol-5-ylmethyl-1H-benzoimidazole-5-carbonyl]-amino}-5-methyl-hexanoic acid] | 205 |
| C[C@@H]1CCCC[C@H]1n1c(Cc2cccs2)nc2cc(C(=O)NC(CC(=O)O)CC3CCCCC3)ccc21 (stereo partly drawn) [Example 51, 4-Cyclohexyl-3-{[1-((1R,2R)-2-methyl-cyclohexyl)-2-thiophen-2-ylmethyl-1H-benzoimidazole-5-carbonyl]-amino}-butyric acid] | 211 |
| C[C@H]1CCCC[C@@H]1n1c(Cc2cccs2)nc2cc(C(=O)NC(CC(=O)O)CC3CCCCC3)ccc21 (stereo partly drawn) [Example 52, 4-Cyclohexyl-3-{[1-((1S,2S)-2-methyl-cyclohexyl)-2-thiophen-2-ylmethyl-1H-benzoimidazole-5-carbonyl]-amino}-butyric acid] | 12300 |
| CC[C@H](C)[C@@H](CC(=O)O)NC(=O)c1ccc2c(c1)nc(Cc1cccs1)n2[C@@H]1CCCC[C@H]1C [Example 53, (3R,4S)-4-Methyl-3-{[1-((1R,2R)-2-methyl-cyclohexyl)-2-thiophen-2-ylmethyl-1H-benzoimidazole-5-carbonyl]-amino}-hexanoic acid] | 48 |
| CCC(CC)n1c(Cc2cccs2)nc2cc(C(=O)N[C@H](CC(=O)O)[C@@H](C)CC)ccc21 [Example 54, (3R,4S)-3-{[1-(1-Ethyl-propyl)-2-thiophen-2-ylmethyl-1H-benzoimidazole-5-carbonyl]-amino}-4-methyl-hexanoic acid] | 115 |
| CCCC(CC(=O)O)NC(=O)c1ccc2c(c1)nc(Cc1cccs1)n2[C@@H]1CCCC[C@H]1C (stereo partly drawn) [Example 55, 3-{[1-((1R,2R)-2-Methyl-cyclohexyl)-2-thiophen-2-ylmethyl-1H-benzoimidazole-5-carbonyl]-amino}-hexanoic acid] | 196 |
| CCCCC(CC(=O)O)NC(=O)c1ccc2c(c1)nc(Cc1cccs1)n2[C@@H]1CCCC[C@H]1C (stereo partly drawn) [Example 56, 3-{[1-((1R,2R)-2-Methyl-cyclohexyl)-2-thiophen-2-ylmethyl-1H-benzoimidazole-5-carbonyl]-amino}-heptanoic acid] | 157 |
| C[C@@H]1CCCC[C@H]1n1c(Cc2cccs2)nc2cc(C(=O)NC(CC(=O)O)C3CCCCC3)ccc21 (stereo partly drawn) [Example 57, 3-Cyclohexyl-3-{[1-((1R,2R)-2-methyl-cyclohexyl)-2-thiophen-2-ylmethyl-1H-benzoimidazole-5-carbonyl]-amino}-propionic acid] | 475 |
| CCCCC(NC(=O)c1ccc2c(c1)nc(Cc1cccs1)n2C(CC)CC)C(C)(C)C(=O)O (stereo not drawn) [Example 58, 3-{[1-(1-Ethyl-propyl)-2-thiophen-2-ylmethyl-1H-benzoimidazole-5-carbonyl]-amino}-2,2-dimethyl-heptanoic acid] | 172 |
| CCC(CC)C(CC(=O)O)NC(=O)c1ccc2c(c1)nc(Cc1cccs1)n2C(CC)CC (stereo not drawn) [Example 59, 4-Ethyl-3-{[1-(1-ethyl-propyl)-2-thiophen-2-ylmethyl-1H-benzoimidazole-5-carbonyl]-amino}-hexanoic acid] | 576 |
| CCC(CC)n1c(Cc2cccs2)nc2cc(C(=O)N[C@H](CC(=O)O)CC3CCCC3)ccc21 [Example 60, (S)-4-Cyclopentyl-3-{[1-(1-ethyl-propyl)-2-thiophen-2-ylmethyl-1H-benzoimidazole-5-carbonyl]-amino}-butyric acid] | 46 |
| C[C@@H]1CCCC[C@H]1n1c(Cc2cccs2)nc2cc(C(=O)N[C@H](CC(=O)O)CC3CCCC3)ccc21 [Example 61, (S)-4-Cyclopentyl-3-{[1-((1R,2R)-2-methyl-cyclohexyl)-2-thiophen-2-ylmethyl-1H-benzoimidazole-5-carbonyl]-amino}-butyric acid] | 75 |

Other lines, results leading:

| EC50 [nM] | SMILES |
| --- | --- |
| 193 | CCC(CC)n1c(Cc2cccs2)nc2cc(C(=O)NC(CC(C)C)C(C)(C)C(=O)O)ccc21 (stereo not drawn) [Example 62, 3-{[1-(1-Ethyl-propyl)-2-thiophen-2-ylmethyl-1H-benzoimidazole-5-carbonyl]-amino}-2,2,5-trimethyl-hexanoic acid] |
| 343 | CCCC(NC(=O)c1ccc2c(c1)nc(Cc1cccs1)n2C(CC)CC)C(C)(C)C(=O)O (stereo not drawn) [Example 63, 3-{[1-(1-Ethyl-propyl)-2-thiophen-2-ylmethyl-1H-benzoimidazole-5-carbonyl]-amino}-2,2-dimethyl-hexanoic acid] |
| 176 | CCC(CC)n1c(Cc2cccs2)nc2cc(C(=O)NC3(CC(=O)O)CCCCC3)ccc21 [Example 64, (1-{[1-(1-Ethyl-propyl)-2-thiophen-2-ylmethyl-1H-benzoimidazole-5-carbonyl]-amino}-cyclohexyl)-acetic acid] |
| 56 | C[C@@H]1CCCC[C@H]1n1c(Cc2cncs2)nc2cc(C(=O)NC(CC(=O)O)CC3CCCCC3)ccc21 (stereo partly drawn) [Example 65, 4-Cyclohexyl-3-{[1-((1R,2R)-2-methyl-cyclohexyl)-2-thiazol-5-ylmethyl-1H-benzoimidazole-5-carbonyl]-amino}-butyric acid] |
| 87 | C[C@@H]1CCCC[C@H]1n1c(Cc2cccs2)nc2cc(C(=O)NC3(CC(=O)O)CCCCC3)ccc21 [Example 66, (1-{[1-((1R,2R)-2-Methyl-cyclohexyl)-2-thiophen-2-ylmethyl-1H-benzoimidazole-5-carbonyl]-amino}-cyclohexyl)-acetic acid] |
| 79 | CCC(CC)n1c(Cc2cccs2)nc2cc(C(=O)N[C@@H](CC(C)C)[C@@H](O)C(=O)O)ccc21 [Example 67, (2R,3S)-3-{[1-(1-Ethyl-propyl)-2-thiophen-2-ylmethyl-1H-benzoimidazole-5-carbonyl]-amino}-2-hydroxy-5-methyl-hexanoic acid] |
| 18 | CCC(CC)n1c(Cc2cccs2)nc2cc(C(=O)N[C@@H](CC(C)C)[C@H](O)C(=O)O)ccc21 [Example 68, (2S,3S)-3-{[1-(1-Ethyl-propyl)-2-thiophen-2-ylmethyl-1H-benzoimidazole-5-carbonyl]-amino}-2-hydroxy-5-methyl-hexanoic acid] |
| 339 | CC(C)C[C@@H](CCC(=O)O)NC(=O)c1ccc2c(c1)nc(Cc1cccs1)n2C1CCCCC1C(F)(F)F (stereo partly drawn) [Example 69, (R)-6-Methyl-4-{[2-thiophen-2-ylmethyl-1-(2-trifluoromethyl-cyclohexyl)-1H-benzoimidazole-5-carbonyl]-amino}-heptanoic acid] |
| 179 | CC(C)C[C@@H](CCC(=O)O)NC(=O)c1ccc2c(c1)nc(Cc1cccs1)n2[C@@H]1CCCC[C@H]1C [Example 70, (R)-6-Methyl-4-{[1-((1R,2R)-2-methyl-cyclohexyl)-2-thiophen-2-ylmethyl-1H-benzoimidazole-5-carbonyl]-amino}-heptanoic acid] |
